This is an account of results in patent publication US20240425497A1, “Cbl-b Inhibitors and Methods of Use Thereof” (ARCUS BIOSCIENCES, INC., priority 2023, published 2024).

One test concerns the target Cbl-b (Homo sapiens (Human), UniProt Q13191). Briefly: Cbl-b probe displacement HTRF binding assay. Particulars: 0.4 nM biotinylated Cbl-b, 150 nM BODIPY probe. As to the method:
The affinity with which compounds of the present disclosure bind to Cbl-b was assessed using probe displacement homologous time resolved fluorescence (HTRF) assays. The assays used a BODIPY™ conjugated probe (Example 54 from WO 2020264398) and biotinylated Cbl-b. The assays were performed in assay buffer consisting of 20 mM Hepes, 150 mM NaCl, 0.01% Triton X-100, 0.5 mM TCEP, 0.01% BSA. On the day of the assay, a 20 point, 1:2 master serial dilution of each compound was prepared in DMSO to span a final concentration range of 10 μM to 0 nM. Two hundred nanoliters of diluted compound was added to each well of a 384-well plate. Fifteen microliters of biotinylated-Cbl-b resuspended in assay buffer were added to each well and the plate incubated for 60 minutes at room temperature prior to addition of 5 μL of BODIPY™ probe in assay buffer. Final assay conditions included 0.4 nM of Cbl-b and 150 nM of BODIPY™ probe. After a further 15 minutes of incubation at room temperature, 5 μl of Streptavidin-Terbium cryptate reagent at 5-fold final concentration was added to each well of the 384-well plate. Binding of a probe to Cbl-b results in an increase of HTRF signal. HTRF signal was measured by Envision plate reader, while competition of a compound of the present disclosure with probe results in a decrease of signal. Percentage maximum activity in each test well was calculated based on DMSO (maximum activity, 0% displacement) and no protein control wells (baseline activity, 100% displacement). Binding affinity was determined from a dose response curve fitted using a standard four parameter fit equation. See Table 3 for data for compounds (Cbl-b Binding (IC50)).

The next test relates to Jurkat cells. Briefly: IL-2 secretion assay in CD3/CD28-activated Jurkat cells (AlphaLISA). The test is classed as cell-based, human. As to conditions: Homo sapiens, CD3/CD28 activation, 24 h. As to the method: Certain compounds were also evaluated in an IL-2 secretion assay. On the day of the assay, a 16 point, 1:2 master serial dilution of each compound was prepared in Opti-MEM to span a final concentration range of […]. Assays were set up in CORNING® tissue culture-treated 384-well microplates containing 60 nL of each dilution. Jurkat cells grown in RPMI-1640 supplemented with 10% FBS, 1% Glutamax, and 1% Pen/Strep were collected, resuspended in Opti-MEM. 50,000 cells/well and added to the compound plates. After a short spin (1200 rpm for 1 min), the plates were incubated at 37° C. for 1 hour. The cells were activated by adding 15 μL of IMMUNOCULT™ Human CD3/CD28 T Cell Activator (STEMCELL Technologies) diluted in Opti-MEM. After 24 h of incubation at 37° C., aliquots of culture supernatants were transferred to OptiPlate-384 (PerkinElmer) microplates. The level of JIL-2 secretion in the supernatants was then determined using the IL-2 (human) AiphaLISA Detection Kit (PerkinElmer) according to the manufacturer's recommendations. The AiphaLISA signal was measured using an EnVision plate reader (PerkinElmer). EC50 values were determined by fitting the data to a standard 4-parameter logistic equation. See Table 3 for data for select compounds (IL-2 Secretion (EC50)).
For orientation: Alpha assays give light when donor and acceptor beads are brought close together.

By IC50 is commonly meant the point on the concentration scale where inhibition reaches its midpoint. A lower IC50 goes with higher potency. By EC50 is commonly meant the concentration needed to bring the measured effect to its halfway point. High values mean weaker potency, low ones greater potency.

Chain of Cbl-b (Q13191 whole entry, species assumed): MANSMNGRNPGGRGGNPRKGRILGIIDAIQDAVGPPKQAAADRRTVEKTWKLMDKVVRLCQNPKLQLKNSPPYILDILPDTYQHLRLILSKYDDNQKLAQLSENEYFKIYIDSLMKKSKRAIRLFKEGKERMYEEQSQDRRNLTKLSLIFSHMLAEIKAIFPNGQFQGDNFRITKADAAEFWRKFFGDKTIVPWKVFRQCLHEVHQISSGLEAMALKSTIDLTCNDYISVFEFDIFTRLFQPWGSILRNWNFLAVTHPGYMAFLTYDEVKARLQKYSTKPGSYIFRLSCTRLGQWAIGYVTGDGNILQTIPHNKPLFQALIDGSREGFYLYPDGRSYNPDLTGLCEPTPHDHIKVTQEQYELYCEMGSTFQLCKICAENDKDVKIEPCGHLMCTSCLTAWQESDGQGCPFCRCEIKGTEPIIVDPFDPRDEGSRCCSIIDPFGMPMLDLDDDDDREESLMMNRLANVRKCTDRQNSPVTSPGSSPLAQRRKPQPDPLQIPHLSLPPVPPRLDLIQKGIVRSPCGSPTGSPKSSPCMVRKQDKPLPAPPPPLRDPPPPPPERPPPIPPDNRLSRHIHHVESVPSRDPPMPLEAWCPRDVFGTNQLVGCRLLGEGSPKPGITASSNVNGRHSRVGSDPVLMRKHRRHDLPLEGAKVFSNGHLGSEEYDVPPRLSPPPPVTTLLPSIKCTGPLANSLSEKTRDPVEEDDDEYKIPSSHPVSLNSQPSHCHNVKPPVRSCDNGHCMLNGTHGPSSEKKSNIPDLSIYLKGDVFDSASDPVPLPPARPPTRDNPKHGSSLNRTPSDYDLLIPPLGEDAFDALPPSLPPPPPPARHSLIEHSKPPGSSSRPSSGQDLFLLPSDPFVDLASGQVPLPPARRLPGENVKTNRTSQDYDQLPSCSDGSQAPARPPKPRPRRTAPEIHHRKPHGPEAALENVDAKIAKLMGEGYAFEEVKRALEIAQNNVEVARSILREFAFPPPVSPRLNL

`C[C@H]1CCCN(Cc2cc3c(C4CC4)cn(-c4nc(-c5ccc(F)cc5C(=O)N5CC(F)C5)cc(C5CC5)n4)c(=O)c3[nH]2)C1` [Example 31, 4-cyclopropyl-6-[4-cyclopropyl-6-[4-fluoro-2-(3-fluoroazetidine-1-carbonyl)phenyl]pyrimidin-2-yl]-2-[[(3S)-3-methylpiperidin-1-yl]methyl]—1H-pyrrolo[2,3-c]pyridin-7-one] returned an IC50 on Cbl-b of 1000 to 5000 nM. Moreover, the EC50 with Jurkat cells is above 5000 nM.
In turn, `O=C(c1cc(F)ccc1-c1cc(C2CC2)nc(-n2cnc3cc(C4CCNC4)[nH]c3c2=O)c1)N1CC(F)C1` (stereo not shown) [Example 32, 3-[6-cyclopropyl-4-[4-fluoro-2-(3-fluoroazetidine-1-carbonyl)phenyl]pyridin-2-yl]-6-pyrrolidin-3-yl-5H-pyrrolo[3,2-d]pyrimidin-4-one] had an IC50 on Cbl-b below 100 nM. Besides, in the test with Jurkat cells, the EC50 was 1000 to 5000 nM.
With `O=C(c1cc(F)ccc1-c1cc(C2CC2)nc(-n2cnc3cc(C4CC4)[nH]c3c2=O)c1)N1CC(F)C1` [Example 33, 6-cyclopropyl-3-[6-cyclopropyl-4-[4-fluoro-2-(3-fluoroazetidine-1-carbonyl)phenyl]pyridin-2-yl]-5H-pyrrolo[3,2-d]pyrimidin-4-one], the half-inhibitory concentration (IC50) at Cbl-b was 100 to 1000 nM. In the test on Jurkat cells, the EC50 was 100 to 1000 nM.
`COC[C@H](C)NCc1cc2ncn(-c3cc(-c4ccc(F)cc4C(=O)N4CC(F)(F)C4)cc(C4CC4)n3)c(=O)c2[nH]1` [Example 34, 3-[6-cyclopropyl-4-[2-(3,3-difluoroazetidine-1-carbonyl)-4-fluorophenyl]pyridin-2-yl]-6-[[[(2S)-1-methoxypropan-2-yl]amino]methyl]-5H-pyrrolo[3,2-d]pyrimidin-4-one] returned an IC50 on Cbl-b below 100 nM. The same compound had an EC50 in the test on Jurkat cells below 100 nM.
`COCCNCc1cc2ncn(-c3cc(-c4ccc(F)cc4C(=O)N4CC(F)C4)cc(C4CC4)n3)c(=O)c2[nH]1` [Example 35, 3-[6-cyclopropyl-4-[4-fluoro-2-(3-fluoroazetidine-1-carbonyl)phenyl]pyridin-2-yl]-6-[(2-methoxyethylamino)methyl]-5H-pyrrolo[3,2-d]pyrimidin-4-one] displayed an IC50 on Cbl-b below 100 nM. The same compound returned an EC50 in the test with Jurkat cells below 100 nM.
On Cbl-b, `CC1(NCc2cc3ncn(-c4cc(-c5ccc(F)cc5C(=O)N5CC(F)C5)cc(C5CC5)n4)c(=O)c3[nH]2)CCC1` [Example 36, 3-[6-cyclopropyl-4-[4-fluoro-2-(3-fluoroazetidine-1-carbonyl)phenyl]pyridin-2-yl]-6-[[(1-methylcyclobutyl)amino]methyl]-5H-pyrrolo[3,2-d]pyrimidin-4-one] showed an IC50 below 100 nM. This compound showed an EC50 with Jurkat cells below 100 nM.
For the compound `O=C(c1cc(F)ccc1-c1cc(C2CC2)nc(-n2cnc3cc(CN4CC5CCC4C5)[nH]c3c2=O)c1)N1CC(F)C1` (stereo not shown) [Example 37, 6-(2-azabicyclo[2.2.1]heptan-2-ylmethyl)-3-[6-cyclopropyl-4-[4-fluoro-2-(3-fluoroazetidine-1-carbonyl)phenyl]pyridin-2-yl]-5H-pyrrolo[3,2-d]pyrimidin-4-one], the IC50 at Cbl-b was below 100 nM. In addition, in the test on Jurkat cells, the 50% effective concentration (EC50) is 100 to 1000 nM.
For `COCCN(C)Cc1cc2ncn(-c3cc(-c4ccc(F)cc4C(=O)N4CC(F)(F)C4)cc(C4CC4)n3)c(=O)c2[nH]1` [Example 38, 3-[6-cyclopropyl-4-[2-(3,3-difluoroazetidine-1-carbonyl)-4-fluorophenyl]pyridin-2-yl]-6-[[2-methoxyethyl(methyl)amino]methyl]-5H-pyrrolo[3,2-d]pyrimidin-4-one] the same measures were below 100 nM and 100 to 1000 nM.
For the compound `O=C(c1cc(F)ccc1-c1cc(C2CC2)nc(-n2cnc3cc(CNCCC(F)(F)F)[nH]c3c2=O)c1)N1CC(F)(F)C1` [Example 39, 3-[6-cyclopropyl-4-[2-(3,3-difluoroazetidine-1-carbonyl)-4-fluorophenyl]pyridin-2-yl]-6-[(3,3,3-trifluoropropylamino)methyl]-5H-pyrrolo[3,2-d]pyrimidin-4-one], the IC50 at Cbl-b was below 100 nM. Also, the EC50 with Jurkat cells was below 100 nM.
For `COCCNCc1cc2ncn(-c3cc(-c4ccc(F)cc4C(=O)N4CC(F)(F)C4)cc(C4CC4)c3)c(=O)c2[nH]1` [Example 41, 6-{5-cyclopropyl-2′-[(3,3-difluoro-1-azetidinyl)carbonyl]-4′-fluoro-3-biphenylyl}-2-[(2-methoxyethylamino)methyl]-1,6-dihydro-1,4,6-triaza-7-indenone], the IC50 at Cbl-b is below 100 nM. In the test with Jurkat cells, the EC50 was 100 to 1000 nM.
In turn, `COC1CN(Cc2cc3ncn(-c4cc(-c5ccc(F)cc5C(=O)N5CC(F)(F)C5)cc(C5CC5)n4)c(=O)c3[nH]2)C1` [Example 43, 6-(6-cyclopropyl-4-{2-[(3,3-difluoro-1-azetidinyl)carbonyl]-4-fluorophenyl}-2-pyridyl)-2-[(3-methoxy-1-azetidinyl)methyl]-1,6-dihydro-1,4,6-triaza-7-indenone] showed a half-inhibitory concentration (IC50) at Cbl-b below 100 nM. In addition, the EC50 with Jurkat cells lay in the range of 100 to 1000 nM.
At Cbl-b, `COCCNCc1cc2ncn(-c3cc(-c4ccc(F)cc4C(=O)N4CC(F)(F)C4)cc(C4CC4)n3)c(=O)c2[nH]1` [Example 44, 6-(6-cyclopropyl-4-{2-[(3,3-difluoro-1-azetidinyl)carbonyl]-4-fluorophenyl}-2-pyridyl)-2-[(2-methoxyethylamino)methyl]-1,6-dihydro-1,4,6-triaza-7-indenone] came in with an IC50 below 100 nM. The same compound gave an EC50 with Jurkat cells below 100 nM.
For the compound `C[C@H]1CCCN(Cc2cc3c(C#N)cn(-c4cc(-c5c(C(=O)N6CC(F)C6)cnn5C)cc(C5CC5)n4)c(=O)c3[nH]2)C1` [Example 45, 2-{[(S)-3-methyl-1-piperidyl]methyl}-6-(6-cyclopropyl-4-{4-[(3-fluoro-1-azetidinyl)carbonyl]-1-methyl-5-pyrazolyl}-2-pyridyl)-7-oxo-1,6-dihydro-1,6-diaza-4-indenecarbonitrile], the IC50 at Cbl-b is below 100 nM. In the test on Jurkat cells, the EC50 lay in the range of 100 to 1000 nM.
For `C[C@H]1CCCN(Cc2[nH]c3c(=O)n(-c4cc(-c5ccc(F)cc5C(=O)N5CC(F)C5)cc(C5CC5)n4)cc(C#N)c3c2Cl)C1` [Example 46, 2-{[(S)-3-methyl-1-piperidyl]methyl}-3-chloro-6-(6-cyclopropyl-4-{4-fluoro-2-[(3-fluoro-1-azetidinyl)carbonyl]phenyl}-2-pyridyl)-7-oxo-1,6-dihydro-1,6-diaza-4-indenecarbonitrile] the same measures were below 100 nM and below 100 nM.
On Cbl-b, `CC(c1cc2ncn(-c3cc(-c4ccc(F)cc4C(=O)N4CC(F)C4)cc(C4CC4)n3)c(=O)c2[nH]1)N1CCO[C@H](C)C1` (stereo partly drawn) [Example 47, 2-{1-[(R)-2-methyl-4-morpholinyl]ethyl}-6-(6-cyclopropyl-4-{4-fluoro-2-[(3-fluoro-1-azetidinyl)carbonyl]phenyl}-2-pyridyl)-1,6-dihydro-1,4,6-triaza-7-indenone] gave an IC50 below 100 nM. Also, the EC50 with Jurkat cells was in the range of 100 to 1000 nM.
In turn, `C[C@H]1CCCN(Cc2nc3c(C(F)(F)F)cn(-c4cc(-c5ccc(F)cc5C(=O)N5CC(F)C5)cc(C5CC5)n4)c(=O)c3[nH]2)C1` [Example 48, 5-[6-cyclopropyl-4-[4-fluoro-2-(3-fluoroazetidine-1-carbonyl)phenyl]pyridin-2-yl]-2-[[(3S)-3-methylpiperidin-1-yl]methyl]-7-(trifluoromethyl)-3H-imidazo[4,5-c]pyridin-4-one] showed an IC50 at Cbl-b below 100 nM. The compound further had an EC50 in the test with Jurkat cells below 100 nM.
In turn, `Cc1cn(-c2cc(-c3ccc(F)cc3C(=O)N3CC(F)C3)cc(C3CC3)n2)c(=O)c2[nH]c([C@H]3CCCN3)nc12` [Example 49, 5-[6-cyclopropyl-4-[4-fluoro-2-(3-fluoroazetidine-1-carbonyl)phenyl]pyridin-2-yl]-7-methyl-2-[(2R)-pyrrolidin-2-yl]-3H-imidazo[4,5-c]pyridin-4-one] had an IC50 on Cbl-b below 100 nM. Moreover, the EC50 in the test on Jurkat cells was above 5000 nM.
